Test system: lipid absorption in the digestive tract
Experiment: Amount of lipid absorption from the digestive tract into blood (14C-triolein, plasma radioactivity)
Format: in vivo, mouse
Conditions: male Balb/c mice, oral 14C-triolein, plasma 6 hours after administration, relative to untreated control = 1; FIG. 3
Method: Triolein (Amersham, 100 μCi/mL) radiolabeled with ^14C was mixed with 1% (w/v) sodium carboxylmethyl cellulose (CMC-Na) and 1% (v/v) Tween 80, and then 0.1 mL of the mixture was forcibly administered into each mouse through an oral zonde so that 1 μCi could be delivered to each mouse. Here, the mouse in the control group (an 8-week old male Balb/c with body weight of 25 g) was treated with 400 μg of Orlistat (20 mg/kg), which is used as an obesity treatment, and the mouse in the experimental group (an 8-week old male Balb/c with body weight of 25 g) was treated with 0.5 mL of the water extract (50 mg/mL) of Fomitella […] prepared in the Example after concentrating it into 0.1 mL. Six hours after the administration, blood samples were collected from the mice, and plasma was obtained by centrifuging the blood at […] at the rate of 14000 rpm, and the radioactive dose was measured by a liquid scintillator (Beta counter, Beckman LS1801). The control group was not treated with anything. The amount of lipid absorption was determined as a relative value by dividing the radioactive dose of each group into the radioactive dose of the control group, in which the radioactive dose of the control group was set at '1'. […] In particular, the result on the control group in FIG. 3 was obtained from the blood sample of a mouse not treated with any lipid absorption inhibitor.

## CCCCCCCCCCC[C@@H](C[C@@H]1OC(=O)[C@H]1CCCCCC)OC(=O)[C@H](CC(C)C)NC=O [Orlistat, orlistat]
  inhibitory effect upon lipid absorption: significant inhibitory effect upon lipid absorption

Reference: patent US20160375073A1, “COMPOSITION FOR TREATMENT OR PREVENTION OF OBESITY, CONTAINING WATER EXTRACTS OF FOMITELLA FRAXINEA” (POSTECH ACADEMY-INDUSTRY FOUNDATION, priority 2011, published 2016)
